Columns and labels:
analbuminemia rats = assay: Treadmill running test to exhaustion in analbuminemia rats (fatigue test); assay type: in vivo, rat; conditions: NAR; for Running time up to exhaustion: i.p., BCH 8 mg/kg and BCAA 250 mg/kg 1 h before running, albumin 1 g/kg 1.5 h before, mean ± SEM
Experimental: Three-week-old female analbuminemia rats (Japan SLC) that genetically lacked albumin in their blood plasma, which had been raised under light and dark cycles of 7:00 to 19:00 (light cycle) at room temperature 22° C., were subjected to the fatigue tests. Prior to the fatigue tests, the analbuminemia rats were subjected to training (20 m/min, 7% inclination) for 30 minutes, four times a week, during a predetermined period of time in 13:00 to 15:00, and this training lasted for four weeks so as to adapt them to running on the treadmill. After the training had been completed, all the analbuminemia rats (weight 210 to 255 g) were subjected to exhaustion tests on the treadmill under the same conditions, and time up to an exhaustion state was measured.
The rats, which were divided into four groups, were respectively treated with physiological saline (made by Otsuka Pharmaceutical Co., Ltd “0.9% physiological saline”), the BCH (made by Sigma K.K., NoA7902), the BCAA and albumin (made by Sigma K.K. A-6272 (Fraction V)). The dose of physiological saline was set to 5 ml/kg, that of the BCH was 8 mg/kg and that of the BCAA was 250 mg/kg, and these were given into the abdominal cavity one hour prior to the start of the running tests. Here, BCH, BCAA and albumin were respectively dissolved in physiological saline, and then administered. The dose of albumin was set to 1 g/kg, and given into the abdominal cavity one and half hours prior to the start of […]. […] These doses were determined so as to obtain sufficient effects, and in the case of actual doses to the human being, these can be changed appropriately depending on various factors.
(§1) These measured data were obtained by a analysis of variance (ANOVA) in one-way layout of Fisher's PLSD test by using multiple comparisons and repeated measurements, based upon the standard error. Next, the data were classified based upon running times, and analyzed by the Student's t-test based upon observation with paired t-test in the total effects of the BCAA and BCH treatment groups.

[1] = tested on: tryptophan-deficient rats; assay: Treadmill running test to exhaustion in tryptophan-deficient rats (Evaluation Test 2); assay type: in vivo, rat; conditions: i.p. 1 h before running, BCH 150 mg/kg, BCAA 250 mg/kg, mean ± standard error
Excerpt: Three-week-old female rats of Sprague-Dawley-type (each rat: 50 g) were raised for one month to a weight of 200 g [fed with normal food of AIN93G for one month (standard refined feed, made by Oriental Yeast, Co., Ltd., with the tryptophan being contained at 2.3 g/kg)], and from this time on, these were fed with the tryptophan-deficient food (adjusted feed in which only the tryptophan was removed from the above-mentioned AIN93G, with corn starch being used for compensating for the corresponding portion) for 16 days to form the tryptophan-deficient rats. Amino acids, contained in the normal food AIN93G, were respectively manufactured by AJINOMOTO CO., INC., and the respective contents (g) in 1 kg of feed were: alanine 5.6, arginine 6.8, aspartic acid 13.1, cystine 3.9, glutamic acid 39.6, glycine 3.4, histidine 5.6, isoleucine 10.1, leucine 17.5, lysine 14.9, methionine 5.6, phenyl alanine 9.5, proline 21.6, serine 9.7, threonine 7.7, tryptophan 2.3 (only contained in the tryptophan-containing food), tyrosine 10.4, and valine 12.6 (each of the amino acids having a purity of 100%). […] After the training had been completed, the rats were subjected to running loads on the treadmill at a speed of 20 m/min (inclination: 7%) up to exhaustion, and the running time was evaluated as the fatigue tests shown below. […]

[2] = tested on: striatal synaptosome of analbuminemia rats; assay: Tryptophan and metabolites in striatal synaptosome immediately after exhaustion (HPLC, electrochemical detector); assay type: in vivo, rat; conditions: for Concentration of 5-HIAA in striatal synaptosome / Concentration of 5-HT in striatal synaptosome / Concentration of 5-HTP in striatal synaptosome / Concentration of tryptophan in striatal synaptosome: NAR, immediately after exhaustion, mean ± SEM
Experimental: The head of each of the rats was sacrificed by decapitation immediately after the training so that the striatal synaptosome was separated, and tryptophan(Trp), 5-hydroxytryptophan (5-HTP), 5-hydroxytryptamin (5-HT) and 5-hydroxyindoleacetic acid (5-HIAA) were measured by high-performance liquid chromatography using an electrochemical detector. Moreover, the protein level in the P2 fraction was measured in accordance with the method of Lowry et al. (J. Protein measurements with the Folin phenol reagent, J. Biol. Chem. 193: 265-275; 1951).
as §1

[3] = tested on: tryptophan-deficient rats; assay: Treadmill running test to exhaustion in tryptophan-deficient rats given tryptophan-added food (Evaluation Test 3); assay type: in vivo, rat
Excerpt: Three-week-old female rats of Sprague-Dawley-type (each rat: 50 g) were raised for one month to a weight of 200 g [fed with normal food of AIN93G for one month (standard refined feed, made by Oriental Yeast, Co., Ltd., with the tryptophan being contained at 2.3 g/kg)], and from this time on, these were fed with the tryptophan-deficient food (adjusted feed in which only the tryptophan was removed from the above-mentioned AIN93G, with corn starch being used for compensating for the corresponding portion) for 16 days to form the tryptophan-deficient rats. Amino acids, contained in the normal food AIN93G, were respectively manufactured by AJINOMOTO CO., INC., and the respective contents (g) in 1 kg of feed were: alanine 5.6, arginine 6.8, aspartic acid 13.1, cystine 3.9, glutamic acid 39.6, glycine 3.4, histidine 5.6, isoleucine 10.1, leucine 17.5, lysine 14.9, methionine 5.6, phenyl alanine 9.5, proline 21.6, serine 9.7, threonine 7.7, tryptophan 2.3 (only contained in the tryptophan-containing food), tyrosine 10.4, and valine 12.6 (each of the amino acids having a purity of 100%). These rats were subjected to training for 30 minutes at a speed of 20 m/min (inclination: 7%) by treadmill running practice, three times a week, which started at the age of 3 weeks old, and lasted for 2 months. After the training had been completed, the rats were subjected to running loads on the treadmill at a speed of 20 m/min (inclination: 7%) up to exhaustion, and the running time was evaluated as the fatigue tests shown below. […] The evaluation was made by using inter-group comparisons (with paired t-test) of a Student's t-test.
To the tryptophan-deficient rats that had been subjected to the above-mentioned training were respectively given tryptophan-added food (AIN93G to which 2.3 g/kg of the tryptophan was added), and were then given physiological saline, a mixture of the BCH and the BCAA, the BCH and the BCAA, and comparison tests were carried out among the four groups. […]

rats = conditions: tryptophan 1 mM/30 min continuously injected into the brain; cited from earlier work

Molecule | Extension of running time relative to physiological saline (analbuminemia rats; from Table 1) | Running time up to exhaustion (analbuminemia rats) | Running time up to exhaustion [1] | Change in uptake of 5-HTP into striatal synaptosome versus physiological saline group ([2]; BCAA and BCH treated groups totaled, group B (time to exhaustion 190 to 271 minutes), p<0.025) | Change in uptake of tryptophan into striatal synaptosome versus physiological saline group ([2]; BCAA and BCH treated groups totaled, group B (time to exhaustion 190 to 271 minutes), p<0.05) | Concentration of 5-HIAA in striatal synaptosome [2] | Concentration of 5-HT in striatal synaptosome [2] | Concentration of 5-HTP in striatal synaptosome [2] | Concentration of tryptophan in striatal synaptosome [2] | Running time of single rats that have not reached exhaustion ([3]; BCH only-administration, two cases) | Running time up to exhaustion ([3]; tryptophan-deficient rats given tryptophan-added food, doses as in evaluation test 2, i.p. 1 h before, mean ± standard error, values >542 set as 542) | Running-time difference versus physiological saline group (average-value comparison) ([3]; tryptophan-deficient rats given tryptophan-containing food, not statistically significant) | Onset of fatigue in the central nervous system or muscles (rats)
NC1(C(=O)O)CC2CCC1C2 (stereo not drawn) [BCH, 2-aminobicyclo-[2,2,1]-heptane-2-carboxylic acid] | approximately twice as long | 188 ± 33 min | 308 ± 22 min | −23% | −19% | 3.58 ± 0.21 pmol/mg protein | 5.20 ± 0.79 pmol/mg protein | 1.25 ± 0.17 pmol/mg protein | 53.43 ± 10.50 pmol/mg protein | 524 minutes and not less than 524 minutes | 428 ± 45 min | approximately 40 minutes | 
N[C@@H](Cc1c[nH]c2ccccc12)C(=O)O [tryptophan] |  |  |  |  |  |  |  |  |  |  |  |  | exhibit the fatigue in the central nervous system or muscles in very early stage
Albumin: albumin made by Sigma K.K. A-6272 (Fraction V) |  | 96 ± 22 min |  |  |  | 3.30 ± 0.06 pmol/mg protein | 5.00 ± 0.47 pmol/mg protein | 1.45 ± 0.18 pmol/mg protein | 52.41 ± 8.97 pmol/mg protein |  |  |  | 

From US20040033252A1, “Agents for recoverying from or preventing fatigue in the central nerve system and foods for recovering from or preventing fatigue” (priority 2000, published 2004)
